Values quoted from earlier work, collected in patent US20070155664A1, “Parathyroid hormone (pth) containing pharmaceutical compositions for oral use” (Nycomed Danmark A/S, priority 2003, published 2007).

What was measured:
pre-menopausal women = conditions: 1200 mg calcium supplements daily, three menstrual cycles; placebo 48%
postmenopausal women = conditions: calcium supplementation

[Ca+2] [calcium]
oral administered dose absorbed (oral): 20-33% | absorption efficiency (young adult, on average): about 30% | women with PMS related symptoms (pre-menopausal women): 30% | reduced bone loss, on average (postmenopausal women): about 1 % year
